Measured values as given in patent US12240825B2, “Oxexin 1 receptor antagonists” (Heptares Therapeutics Limited, priority 2019, dated 2025).

Legend:
[1] = target: T1, Human OX2 receptor (Homo sapiens (Human), UniProt O43614); experiment: IPone accumulation assay, CHO cells expressing OX2; type: cell-based; conditions: antagonism of orexin A (EC80 40 nM)-induced inositol phosphate turnover, read-out: fpKb average OX2 (converted)
Method: Generation of CHO stable cell lines expressing the human OX1R and OX2R. Stable cell lines for the human OX1R and OX2R receptors were generated through the transfection of CHO cells using the transfection reagent Genejuice (Novagen number 70967) and cDNA coding for either the human OX1R or OX2R. Cells were cultured in Sigma Nutrient Mixture F-12 Ham media (catalog number N6658) supplemented with 10% heat-inactivated FBS. Forty-eight hours after transfection, cells were harvested and placed under geneticin selection by culturing in Sigma Nutrient Mixture F-12 Ham media supplemented with 10% heat-inactivated FBS and geneticin (ThermoFisher Catalog number: 10131035). Selection of the final stable clone for each receptor was made on the basis of receptor expression, assay signal to noise and robustness though increasing passage. Selected clones for the human OX1R and OX2R were then frozen down into liquid nitrogen using Cell Freezing Medium-DMSO (Sigma-Aldrich catalog number: C6164). IPone accumulation assay. A CHO cell line stably expressing either human OX1 or OX2 receptor was used with the IPone HTRF assay kit (CisBio: Part #62[…]) to measure receptor activation. The assay was optimised to measure the ability (potency; fpKb) of antagonists to reduce agonist (orexin A)-induced inositol phosphate turnover. Briefly, cells were plated onto half area 96-well white walled plates at a density of 12,500 cells/well. Sixteen hours post-plating cell growth media was replaced with antagonist concentration-response curve diluted in stimulation buffer (supplied with the kit). Cells were incubated in a humidified incubator (37° C.) for 30 min before an EC80 challenge concentration ( 20 nM (OX1) and 40 nM (OX2)) of orexin A (Tocris catalogue number 1455). After 30 min stimulation in a humidified incubator (37° C.) the assay was terminated by the addition of detection mixture as per manufacturer's instructions. The concentration of compound which reduced orexin-A stimulated turnover of inositol phosphates by 50% (IC50) was calculated by fitting to a four parameter sigmoidal dose response curve. The IC50 values were converted to fpKB values using the orexin A pEC50 value estimated on each plate as well as the challenge concentration interpolated from the orexin A control curve.

[2] = target: T2, Human OX1 receptor (Homo sapiens (Human), UniProt O43613); experiment: IPone accumulation assay, CHO cells expressing OX1; type: cell-based; conditions: antagonism of orexin A (EC80 ~20 nM)-induced inositol phosphate turnover, read-out: fpKb average OX1 (converted)
Method: Generation of CHO stable cell lines expressing the human OX1R and OX2R. Stable cell lines for the human OX1R and OX2R receptors were generated through the transfection of CHO cells using the transfection reagent Genejuice (Novagen number 70967) and cDNA coding for either the human OX1R or OX2R. Cells were cultured in Sigma Nutrient Mixture F-12 Ham media (catalog number N6658) supplemented with 10% heat-inactivated FBS. Forty-eight hours after transfection, cells were harvested and placed under geneticin selection by culturing in Sigma Nutrient Mixture F-12 Ham media supplemented with 10% heat-inactivated FBS and geneticin (ThermoFisher Catalog number: 10131035). Selection of the final stable clone for each receptor was made on the basis of receptor expression, assay signal to noise and robustness though increasing passage. Selected clones for the human OX1R and OX2R were then frozen down into liquid nitrogen using Cell Freezing Medium-DMSO (Sigma-Aldrich catalog number: C6164).
IPone accumulation assay. A CHO cell line stably expressing either human OX1 or OX2 receptor was used with the IPone HTRF assay kit (CisBio: Part #62IPAPEJ) to measure receptor activation. The assay was optimised to measure the ability (potency; fpKb) of antagonists to reduce agonist (orexin A)-induced inositol phosphate turnover. Briefly, cells were plated onto half area 96-well white walled plates at a density of 12,500 cells/well. Sixteen hours post-plating cell growth media was replaced with antagonist concentration-response curve diluted in stimulation buffer (supplied with the kit). Cells were incubated in a humidified incubator (37° C.) for 30 min before an EC80 challenge concentration (˜20 nM (OX1) and 40 nM (OX2)) of orexin A (Tocris catalogue number 1455). After 30 min stimulation in a humidified incubator (37° C.) the assay was terminated by the addition of detection mixture as per manufacturer's instructions. The concentration of compound which reduced orexin-A stimulated turnover of inositol phosphates by 50% (IC50) was calculated by fitting to a four parameter sigmoidal dose response curve. The IC50 values were converted to fpKB values using the orexin A pEC50 value estimated on each plate as well as the challenge concentration interpolated from the orexin A control curve.

[3] = target: T2, Human OX1 receptor; experiment: [3H]-radioligand binding assay, OX1; conditions: for pKi average OX1: competition binding, membranes of SF21 cells, Ki by Cheng-Prusoff
Source text: (§1) Cloning, Baculovirus generation, large-scale infection of SF21 cells and membrane preparation. Human OX1 or OX2 receptor were cloned into Invitrogen's (ThermoFisher Scientific, UK) Bac-to-Bac Baculovirus Expression System. P0 baculovirus was generated by transfecting SF9 cells with bacmid DNA using Cellfectin® II transfection reagent (ThermoFisher Scientific, UK, Catalog number 10362-100). Following P0 generation P1 virus was then generated ready for large scale infection and membrane preparation. SF21 cells were grown in expression medium ESF921 (Expression Systems, USA, catalog number 96-001-01) supplemented with 10% heat-inactivated FBS and 1% Pen/Strep and were infected at a cell density of 2.5×10^6 cells/mL and a multiplicity of infection of 1.0 for both human OX1R and OX2R. Incubation was carried out at over 48 h in a shaking incubator set at 27° C. The cell culture was then centrifuged at 2,500 rcf for 10 min at 4° C. The pellets were resuspended in cold PBS supplemented with Roche's Complete EDTA-free protease inhibitor cocktail tablets (Roche Applied Sciences, catalog number 05056489001), 1 mM PMSF and 1 mM EDTA. The resuspended cell paste was then centrifuged at 3,273 rcf for 12 min at 4° C. The supernatant was discarded and the pellet frozen at −80° C. The cell pellet from a 4 L culture was resuspended in buffer containing 50 mM HEPES pH 7.5, 150 mM NaCl, 8 Roche EDTA-Free protease inhibitor cocktail tablets and 1 mM PMSF. The suspension was left stirring at rt for 1 h and then homogenised for 90 s at 9,500 rpm using a VDI 25 (VWR, USA) homogeniser. The cells were then lysed using a Microfluidiser processor M-110L Pneumatic (Microfluidics, USA) at 60 PSI and membranes collected by ultracentrifugation at 204.7 k×g for 1 h. The supernatant was discarded and the pellet was resuspended and homogenised in 90 s at 9,500 rpm in 50 mL (25 mL for each 2 L culture) of buffer containing 50 mM Hepes pH 7.5, 150 mM NaCl, 3 Roche EDTA-free protease inhibitor cocktail tablets and 1 mM PMSF. The resulting membranes were then stored at −80° C.
(§2) [^3H]-radioligand binding assay. After thawing, membrane homogenates were resuspended in the binding buffer (8.5 mM HEPES, pH 7.4, 1.3 mM CaCl2, 1.2 mM MgSO4, 118 mM NaCl, 4.7 mM KCl, 4 mM NaHCO3, 1.2 mM KH2PO4, 11 mM glucose) to a final assay concentration of 6.4 μg (OX1) or 1.4 μg (OX2) protein per well. Saturation isotherms were determined by the addition of various concentrations (0-30 nM) of [^3H]-4-(2,6-difluoro-4-methoxybenzyl)-2-(5,6-dimethoxypyridin-3-yl)-2H-1,2,4-benzothiadiazin-3(4H)-one 1,1-dioxide (Christopher et al, MedChemComm., 2015, 6, 947-955) in a total reaction volume of 250 μL for 90 min at rt. At the end of the incubation, membranes were filtered onto a 96-well GF/B filter pre-incubated with 0.5% polyethylenimine, with a Tomtec cell harvester and washed 5 times with 0.5 mL distilled water. Non-specific binding (NSB) was measured in the presence of 3.33 μM [4-(5-chloro-1,3-benzoxazol-2-yl)-7-methyl-1,4-diazepan-1-yl][5-methyl-2-(2H-1,2,3-triazol-2-yl)phenyl]methanone (Wertz et al, Angew. Chem. Int. Ed., 2011, 50, 11511-11515). Radioactivity on the filter was counted (1 min) on a Microbeta radiometric plate counter (Perkin Elmer) after addition of 50 μL of scintillation fluid (LabLogic: Part #SG-BXX-14). […] IC50 values were derived from the inhibition curve and the equilibrium dissociation constant (Ki) values were calculated using the Cheng-Prusoff equation.

[4] = target: T1, Human OX2 receptor; experiment: [3H]-radioligand binding assay, OX2; conditions: for pKi average OX2: competition binding, membranes of SF21 cells, Ki by Cheng-Prusoff
Source text: as §1, §2

T2 sequence (O43613 whole entry): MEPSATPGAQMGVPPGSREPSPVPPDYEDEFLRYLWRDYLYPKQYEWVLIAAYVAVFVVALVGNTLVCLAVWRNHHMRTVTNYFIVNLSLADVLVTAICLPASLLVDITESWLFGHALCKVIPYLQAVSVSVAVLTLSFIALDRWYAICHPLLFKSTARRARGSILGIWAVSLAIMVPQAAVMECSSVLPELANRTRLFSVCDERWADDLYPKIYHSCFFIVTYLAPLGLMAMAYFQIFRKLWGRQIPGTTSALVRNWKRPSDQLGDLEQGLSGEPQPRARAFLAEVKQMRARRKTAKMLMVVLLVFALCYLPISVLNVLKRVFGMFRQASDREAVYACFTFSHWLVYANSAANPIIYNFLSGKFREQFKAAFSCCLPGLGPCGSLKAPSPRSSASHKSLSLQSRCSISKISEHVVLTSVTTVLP
T1 sequence (O43614 whole entry): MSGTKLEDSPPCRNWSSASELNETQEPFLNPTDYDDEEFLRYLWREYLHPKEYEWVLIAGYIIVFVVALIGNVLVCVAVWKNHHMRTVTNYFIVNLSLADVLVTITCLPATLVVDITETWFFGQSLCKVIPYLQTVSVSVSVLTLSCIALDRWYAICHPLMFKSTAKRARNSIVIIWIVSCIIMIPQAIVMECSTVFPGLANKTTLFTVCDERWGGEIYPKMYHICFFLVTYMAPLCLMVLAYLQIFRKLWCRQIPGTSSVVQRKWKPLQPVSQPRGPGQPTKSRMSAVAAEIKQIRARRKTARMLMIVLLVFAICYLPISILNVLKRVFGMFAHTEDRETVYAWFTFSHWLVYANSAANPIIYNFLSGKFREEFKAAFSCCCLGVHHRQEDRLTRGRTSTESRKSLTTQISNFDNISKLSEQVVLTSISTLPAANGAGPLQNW

Row | Kd ([3]; saturation isotherms) | Kd ([4]; saturation isotherms) | Structure (SMILES) | Kb [1] | Kb [2] | pKi average OX1 [3] | pKi average OX2 [4]
1 |  |  | [2H]C([2H])(Oc1ccc(F)cc1)[C@H]1CCC[C@@H]1NC(=O)c1nc(NC(C)=O)ccc1-n1nccn1 [Example 8, 6-acetamido-N-[(1S,2S)-2-[dideuterio-(4-fluorophenoxy)methyl]cyclopentyl]-3-(triazol-2-yl)pyridine-2-carboxamide] | > 794 nM | 15.8 nM | 8.4 | 5.8
2 |  |  | CC(=O)Nc1ccc(-c2ncc(F)cn2)c(C(=O)N[C@H]2CCC[C@@H]2COc2ccc(F)cc2)n1 [Example 21, 6-acetamido-N-[(1S,2S)-2-[(4-fluorophenoxy)methyl]cyclopentyl]-3-(5-fluoropyrimidin-2-yl)pyridine-2-carboxamide] | > 794 nM | 20 nM | 8.2 | 5.6
3 |  |  | COCC(=O)Nc1ccc(-c2ncccn2)c(C(=O)N[C@H]2CCC[C@@H]2COc2ccc(F)cc2)n1 [Example 16, N-[(1S,2S)-2-[(4-fluorophenoxy)methyl]cyclopentyl]-6-[(2-methoxyacetyl)amino]-3-pyrimidin-2-yl-pyridine-2-carboxamide] | > 1000 nM | 200 nM | 7.7 | <5.1
4 |  |  | Nc1ccc(-n2nccn2)c(C(=O)N[C@H]2CCC[C@@H]2COc2ccc(F)cc2)n1 [Example 4, 6-amino-N-[(1S,2S)-2-[(4-fluorophenoxy)methyl]cyclopentyl]-3-(triazol-2-yl)pyridine-2-carboxamide] | > 1260 nM | 10 nM | 8.0 | 5.9
5 |  |  | CC(=O)Nc1cc(C(=O)N[C@H]2CCC[C@@H]2COc2ccc(F)cc2)c(-c2ncccn2)cn1 [Example 24, 2-acetamido-N-[(1S,2S)-2-[(4-fluorophenoxy)methyl]cyclopentyl]-5-pyrimidin-2-yl-pyridine-4-carboxamide] | > 398 nM | 1.26 nM | 8.3 | 6.6
6 |  |  | CC(=O)Nc1ccc(-n2nccn2)c(C(=O)N(C)[C@H]2CCC[C@@H]2COc2ccc(F)cc2)n1 [Example 5, 6-acetamido-N-[(1S,2S)-2-[(4-fluorophenoxy)methyl]cyclopentyl]-N-methyl-3-(triazol-2-yl)pyridine-2-carboxamide] | > 1000 nM | 3.16 nM | 8.5 | 6.0
7 |  |  | CC(=O)Nc1ccc(-n2nccn2)c(C(=O)N(C(C)C)[C@H]2CCC[C@@H]2COc2ccc(F)cc2)n1 [Example 7, 6-acetamido-N-[(1S,2S)-2-[(4-fluorophenoxy)methyl]cyclopentyl]-N-isopropyl-3-(triazol-2-yl)pyridine-2-carboxamide] | > 794 nM | 25.1 nM | 8.1 | <5.3
8 |  |  | CC(=O)Nc1ccc(-n2nccn2)c(C(=O)N[C@H]2CCC[C@@H]2COc2ccc(Cl)cc2)n1 [Example 6, 6-acetamido-N-[(1S,2S)-2-[(4-chlorophenoxy)methyl]cyclopentyl]-3-(triazol-2-yl)pyridine-2-carboxamide] | > 631 nM | 7.94 nM | 8.1 | <5.2
9 |  |  | Nc1ccc(-c2ncccn2)c(C(=O)N[C@H]2CCC[C@@H]2COc2ccc(F)cc2)n1 [Example 12, 6-amino-N-[(1S,2S)-2-[(4-fluorophenoxy)methyl]cyclopentyl]-3-pyrimidin-2-yl-pyridine-2-carboxamide] |  | 5.01 nM | 8.2 | 
10 |  |  | O=C(N[C@H]1CCC[C@@H]1COc1ccc(F)cc1)c1nc(NC(=O)C2CC2)ccc1-n1nccn1 [Example 13, 6-(cyclopropanecarbonylamino)-N-[(1S,2S)-2-[(4-fluorophenoxy)methyl]cyclopentyl]-3-(triazol-2-yl)pyridine-2-carboxamide] | > 1000 nM |  | 7.8 | <6.0
11 | 1.5 nM | 0.75 nM | COc1cc(F)c(CN2C(=O)N(c3cnc(OC)c(OC)c3)S(=O)(=O)c3ccccc32)c(F)c1 [[^3H]-4-(2,6-difluoro-4-methoxybenzyl)-2-(5,6-dimethoxypyridin-3-yl)-2H-1,2,4-benzothiadiazin-3(4H)-one 1,1-dioxide, reference compound] |  |  |  | 
